Measured values published in PubChem BioAssay (NCI).
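96-well plates; 48 h exposure; 5 concentrations. Endpoints by linear interpolation between flanking doses. Not reached: highest tested concentration assigned. At the TGI there is no net growth.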

Assays:
Experiment in all cases: NCI anticancer screen, dose series, 48 h
MOLT-4 leukemia = test system: MOLT-4 leukemia
SK-OV-3 ovarian = test system: SK-OV-3 ovarian
HCC-2998 colon = test system: HCC-2998 colon
SF-539 CNS = test system: SF-539 CNS
HT29 colon = test system: HT29 colon
SK-MEL-28 melanoma = test system: SK-MEL-28 melanoma
MDA-N = test system: MDA-N
MDA-MB-435 = test system: MDA-MB-435
UO-31 renal = test system: UO-31 renal
SK-MEL-2 melanoma = test system: SK-MEL-2 melanoma
HL-60(TB) leukemia = test system: HL-60(TB) leukemia

| Structure (SMILES) | TGI (MOLT-4 leukemia) | TGI (SK-OV-3 ovarian) | TGI (HCC-2998 colon) | TGI (SF-539 CNS) | TGI (HT29 colon) | TGI (SK-MEL-28 melanoma) | TGI (MDA-N) | TGI (MDA-MB-435) | TGI (UO-31 renal) | TGI (SK-MEL-2 melanoma) | TGI (HL-60(TB) leukemia) |
| --- | --- | --- | --- | --- | --- | --- | --- | --- | --- | --- | --- |
| O=Cc1ccc(Oc2c3ccccc3nc3ccccc23)cc1 | 6.08 µM | 21.6 µM | 28.6 µM | 4.12 µM | 4.38 µM | 25.6 µM | 13.8 µM | 6.85 µM | – | – | – |
| COC(=O)CCC(=O)c1ccc2c(c1)CC1(Cc3ccccc3C1)C2 | 52.6 µM | > 100 µM | > 100 µM | > 100 µM | 43.9 µM | – | > 100 µM | > 100 µM | 80.3 µM | > 100 µM | – |
| COC(=O)Cc1c(-c2c(CC(=O)OC)c3ccccc3n2C2OC(COC3OC(COC(C)=O)C(OC(C)=O)C(OC(C)=O)C3OC(C)=O)C(O)C(O)C2O)[nH]c2ccccc12 (stereo unspecified) | > 100 µM | > 100 µM | – | > 100 µM | > 100 µM | > 100 µM | > 100 µM | > 100 µM | > 100 µM | 64.7 µM | > 100 µM |
| O=CC1C(=O)Nc2nc3ccccc3n2C1c1ccccc1 (stereo unspecified) | 5.73 µM | – | – | 44.6 µM | 41.2 µM | 46.4 µM | – | 44.8 µM | 27.4 µM | 43.7 µM | > 100 µM |
| COc1ccc(C(CC(=O)c2ccc(O)cc2)C(C(=O)c2ccc(O)cc2)C(c2ccc(OC)cc2)C2C(=O)NC(=S)NC2=O)cc1 (stereo unspecified) | > 100 µM | – | – | – | > 100 µM | 48.8 µM | 41.5 µM | 61.2 µM | 33.8 µM | 70.8 µM | 85.6 µM |
| O=C(Nc1ccccn1)c1cc2c(cc1Cl)Sc1nccn1S2(=O)=O | > 100 µM | > 100 µM | 30.9 µM | – | > 100 µM | > 100 µM | > 100 µM | > 100 µM | 94.9 µM | 48.8 µM | 74.3 µM |
| CC(C)N=C(NC#N)NS(=O)(=O)c1cnccc1NC1CCCCCCC1 | > 100 µM | > 100 µM | > 100 µM | – | > 100 µM | > 100 µM | > 100 µM | > 100 µM | > 100 µM | > 100 µM | – |
| COC(=O)c1cc(OCc2cc(OCc3ccc(Br)cc3)cc(OCc3ccc(Br)cc3)c2)cc(OCc2cc(OCc3ccc(Br)cc3)cc(OCc3ccc(Br)cc3)c2)c1 | > 100 µM | > 100 µM | > 100 µM | > 100 µM | – | > 100 µM | > 100 µM | > 100 µM | > 100 µM | > 100 µM | – |
| CN1CCN2CCN(C)CCN(CC1)CC2 | > 100 µM | > 100 µM | – | > 100 µM | > 100 µM | > 100 µM | > 100 µM | > 100 µM | > 100 µM | > 100 µM | > 100 µM |
| COc1ccc(/C=C2\NC(=S)N(CN3CCOCC3)C2=O)cc1 | > 100 µM | > 100 µM | – | – | > 100 µM | > 100 µM | > 100 µM | > 100 µM | > 100 µM | > 100 µM | – |
| C[C@H](OC(=O)/C=C/c1ccc(O)c(O)c1)[C@H](C)OC(=O)/C=C/c1ccc(O)c(O)c1 | > 100 µM | 32.3 µM | 33.4 µM | > 100 µM | > 100 µM | 28.6 µM | 18.4 µM | 77.3 µM | 21.9 µM | 50.3 µM | – |
| C/C(=N\Nc1nc2ccccc2[nH]1)c1ccc2ccccc2n1 | 2.64 µM | 38.4 µM | – | 20.1 µM | – | 23 µM | 14.8 µM | 17 µM | 5.1 µM | 7.23 µM | 5.04 µM |
| CN1CCN(C(=S)N(C(=O)c2ccc(Cl)cc2)C2CCCCC2)CC1 | > 100 µM | – | > 100 µM | – | > 100 µM | > 100 µM | > 100 µM | > 100 µM | > 100 µM | > 100 µM | > 100 µM |
| Cc1ccc(S(=O)(=O)N/N=C2/C3CC4CCC2C4C3)cc1 (stereo unspecified) | – | > 100 µM | > 100 µM | > 100 µM | > 100 µM | > 100 µM | > 100 µM | > 100 µM | > 100 µM | – | – |
| C[C@@H](Br)[C@@H]1CC[C@H]2c3[nH]c4ccccc4c3CCN2C1 | 49.7 µM | 87.2 µM | 31.3 µM | – | 67.8 µM | > 100 µM | 44 µM | 45.6 µM | > 100 µM | 50.6 µM | 39.5 µM |
| CC(C)[Si](CC1=CCCCC12C(=O)N(COCC[Si](C)(C)C)c1ccccc12)(C(C)C)C(C)C (stereo unspecified) | > 100 µM | > 100 µM | > 100 µM | > 100 µM | > 100 µM | > 100 µM | > 100 µM | > 100 µM | > 100 µM | > 100 µM | – |
| c1ccc2c[n+](Cc3ccnc4ccccc34)ccc2c1 | > 100 µM | > 100 µM | > 100 µM | > 100 µM | > 100 µM | > 100 µM | > 100 µM | > 100 µM | > 100 µM | > 100 µM | – |

| Structure (SMILES) | TGI (MOLT-4 leukemia) | TGI (SK-OV-3 ovarian) | TGI (HCC-2998 colon) | TGI (SF-539 CNS) | TGI (HT29 colon) | TGI (SK-MEL-28 melanoma) | TGI (MDA-N) | TGI (MDA-MB-435) | TGI (UO-31 renal) | TGI (SK-MEL-2 melanoma) | TGI (HL-60(TB) leukemia) |
| --- | --- | --- | --- | --- | --- | --- | --- | --- | --- | --- | --- |
| CC(=O)Nc1ccc2cc3c(nc2n1)c1cccnc1n3S(=O)(=O)c1ccccc1 | > 100 µM | > 100 µM | > 100 µM | – | > 100 µM | > 100 µM | > 100 µM | > 100 µM | > 100 µM | > 100 µM | > 100 µM |
| CN=C(NC#N)NCc1ccccc1 | > 100 µM | > 100 µM | > 100 µM | > 100 µM | > 100 µM | > 100 µM | – | – | > 100 µM | > 100 µM | > 100 µM |
| COC(=O)CC(c1ccccc1)C(C#N)(OP1(=O)OC(c2ccccc2)C(C)N1C)c1ccccc1 (stereo unspecified) | 64.6 µM | > 100 µM | > 100 µM | – | > 100 µM | > 100 µM | > 100 µM | > 100 µM | > 100 µM | 92.6 µM | 72.6 µM |
| O=c1ccc2c(Cl)sc(Cl)c2[nH]1 | > 100 µM | > 100 µM | > 100 µM | – | > 100 µM | > 100 µM | > 100 µM | > 100 µM | > 100 µM | > 100 µM | – |
| COc1cc(C2C(Cl)C(=O)N2NC(=O)c2ccccc2O)cc(OC)c1OC (stereo unspecified) | > 10 µM | – | – | > 10 µM | 9.06 µM | – | – | > 10 µM | > 10 µM | – | 5.96 µM |
| COc1ccc(-c2nc3ccccc3c(=O)[nH]2)cc1OC | > 100 µM | > 100 µM | > 100 µM | 80.5 µM | > 100 µM | – | > 100 µM | > 100 µM | > 100 µM | > 100 µM | – |
| COc1cc2oc(=O)cc(C)c2c(OC)c1OC | > 100 µM | > 100 µM | – | – | > 100 µM | > 100 µM | > 100 µM | > 100 µM | > 100 µM | > 100 µM | – |
| O=C1C=C(NCCc2ccc(O)cc2)C(=O)C=C1NCCc1ccc(O)cc1 | > 100 µM | > 100 µM | > 100 µM | – | > 100 µM | > 100 µM | – | > 100 µM | > 100 µM | > 100 µM | 71.2 µM |
| COc1ccccc1N1C(=O)/C(=C\c2ccccc2)SC1c1cc(OC)c(OC)c(OC)c1 (stereo unspecified) | > 100 µM | > 100 µM | > 100 µM | – | > 100 µM | > 100 µM | 48.6 µM | 46.5 µM | > 100 µM | 33 µM | – |
| COc1ccc([C@H]2C=C(c3cc(F)c(Cl)cc3Cl)N=c3s/c(=C\c4ccc(-c5ccc(Cl)cc5Cl)o4)c(=O)n32)cc1 | > 100 µM | 65.2 µM | 47.8 µM | > 100 µM | > 100 µM | > 100 µM | > 100 µM | > 100 µM | > 100 µM | 48.3 µM | – |
| O=C(CN1CCOCC1)c1ccc2c(c1)oc(=O)n2CCN1CCCCC1 | > 100 µM | > 100 µM | – | > 100 µM | > 100 µM | > 100 µM | > 100 µM | > 100 µM | > 100 µM | > 100 µM | > 100 µM |
| C[C@H](N)C(=O)Nc1ccc(-c2nc3ccccc3s2)cc1Cl | 40 µM | 32.7 µM | 17.9 µM | – | 32.8 µM | 27.7 µM | 26.3 µM | 28.7 µM | 22.9 µM | 30.5 µM | – |
| CSc1nnc2n1-c1ccccc1SCC2 | > 100 µM | > 100 µM | > 100 µM | > 100 µM | > 100 µM | > 100 µM | – | – | > 100 µM | > 100 µM | > 100 µM |
| O=C(O)Cc1ccc(-n2nnc3c(=O)[nH][nH]c(=O)c32)cc1 | > 100 µM | – | > 100 µM | – | > 100 µM | > 100 µM | > 100 µM | > 100 µM | > 100 µM | > 100 µM | > 100 µM |
| COc1ccc(-c2cc(-c3ccncc3)nc(N)c2-c2ccc(F)cc2)cc1 | > 100 µM | > 100 µM | – | 46.8 µM | > 100 µM | – | – | > 100 µM | > 100 µM | > 100 µM | – |
| O=CN/C=C\c1cc(O)ccc1O | 70.6 µM | > 100 µM | > 100 µM | > 49.6 µM | > 31.6 µM | > 64.9 µM | – | – | 29.1 µM | > 100 µM | 47.8 µM |
| CSc1cc(Cl)c(C)cc1S(=O)(=O)NC(=O)NNc1cnc2ccccc2n1 | 56.8 µM | > 100 µM | > 100 µM | > 100 µM | > 100 µM | > 100 µM | > 100 µM | > 100 µM | – | > 100 µM | – |
